Tests used:
Format in all cases: biochemical
[1] = biological target: p300 (Homo sapiens, UniProt Q09472); test: radioisotope […]Ac-CoA HAT assay, […] probe, […] activity lost; conditions: read-out: % activity lost at 50 μM
[2] = biological target: Tip60 (Homo sapiens, UniProt Q92993); test: CPM fluorescent HAT assay with H4-20 and Ac-CoA
[3] = biological target: T1, PCAF (Homo sapiens, UniProt Q92831); test: CPM fluorescent HAT assay with H3-20 and Ac-CoA
[4] = biological target: T1, PCAF; test: radioisotope […]Ac-CoA HAT assay, […] probe

T1 sequence (Q92831 493-658): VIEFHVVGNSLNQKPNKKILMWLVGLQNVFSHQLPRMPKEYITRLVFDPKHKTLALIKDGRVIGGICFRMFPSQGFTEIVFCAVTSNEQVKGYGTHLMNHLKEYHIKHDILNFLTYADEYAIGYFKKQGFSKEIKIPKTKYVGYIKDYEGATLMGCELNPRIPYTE
Sequence of p300 (Q09472 2-2414): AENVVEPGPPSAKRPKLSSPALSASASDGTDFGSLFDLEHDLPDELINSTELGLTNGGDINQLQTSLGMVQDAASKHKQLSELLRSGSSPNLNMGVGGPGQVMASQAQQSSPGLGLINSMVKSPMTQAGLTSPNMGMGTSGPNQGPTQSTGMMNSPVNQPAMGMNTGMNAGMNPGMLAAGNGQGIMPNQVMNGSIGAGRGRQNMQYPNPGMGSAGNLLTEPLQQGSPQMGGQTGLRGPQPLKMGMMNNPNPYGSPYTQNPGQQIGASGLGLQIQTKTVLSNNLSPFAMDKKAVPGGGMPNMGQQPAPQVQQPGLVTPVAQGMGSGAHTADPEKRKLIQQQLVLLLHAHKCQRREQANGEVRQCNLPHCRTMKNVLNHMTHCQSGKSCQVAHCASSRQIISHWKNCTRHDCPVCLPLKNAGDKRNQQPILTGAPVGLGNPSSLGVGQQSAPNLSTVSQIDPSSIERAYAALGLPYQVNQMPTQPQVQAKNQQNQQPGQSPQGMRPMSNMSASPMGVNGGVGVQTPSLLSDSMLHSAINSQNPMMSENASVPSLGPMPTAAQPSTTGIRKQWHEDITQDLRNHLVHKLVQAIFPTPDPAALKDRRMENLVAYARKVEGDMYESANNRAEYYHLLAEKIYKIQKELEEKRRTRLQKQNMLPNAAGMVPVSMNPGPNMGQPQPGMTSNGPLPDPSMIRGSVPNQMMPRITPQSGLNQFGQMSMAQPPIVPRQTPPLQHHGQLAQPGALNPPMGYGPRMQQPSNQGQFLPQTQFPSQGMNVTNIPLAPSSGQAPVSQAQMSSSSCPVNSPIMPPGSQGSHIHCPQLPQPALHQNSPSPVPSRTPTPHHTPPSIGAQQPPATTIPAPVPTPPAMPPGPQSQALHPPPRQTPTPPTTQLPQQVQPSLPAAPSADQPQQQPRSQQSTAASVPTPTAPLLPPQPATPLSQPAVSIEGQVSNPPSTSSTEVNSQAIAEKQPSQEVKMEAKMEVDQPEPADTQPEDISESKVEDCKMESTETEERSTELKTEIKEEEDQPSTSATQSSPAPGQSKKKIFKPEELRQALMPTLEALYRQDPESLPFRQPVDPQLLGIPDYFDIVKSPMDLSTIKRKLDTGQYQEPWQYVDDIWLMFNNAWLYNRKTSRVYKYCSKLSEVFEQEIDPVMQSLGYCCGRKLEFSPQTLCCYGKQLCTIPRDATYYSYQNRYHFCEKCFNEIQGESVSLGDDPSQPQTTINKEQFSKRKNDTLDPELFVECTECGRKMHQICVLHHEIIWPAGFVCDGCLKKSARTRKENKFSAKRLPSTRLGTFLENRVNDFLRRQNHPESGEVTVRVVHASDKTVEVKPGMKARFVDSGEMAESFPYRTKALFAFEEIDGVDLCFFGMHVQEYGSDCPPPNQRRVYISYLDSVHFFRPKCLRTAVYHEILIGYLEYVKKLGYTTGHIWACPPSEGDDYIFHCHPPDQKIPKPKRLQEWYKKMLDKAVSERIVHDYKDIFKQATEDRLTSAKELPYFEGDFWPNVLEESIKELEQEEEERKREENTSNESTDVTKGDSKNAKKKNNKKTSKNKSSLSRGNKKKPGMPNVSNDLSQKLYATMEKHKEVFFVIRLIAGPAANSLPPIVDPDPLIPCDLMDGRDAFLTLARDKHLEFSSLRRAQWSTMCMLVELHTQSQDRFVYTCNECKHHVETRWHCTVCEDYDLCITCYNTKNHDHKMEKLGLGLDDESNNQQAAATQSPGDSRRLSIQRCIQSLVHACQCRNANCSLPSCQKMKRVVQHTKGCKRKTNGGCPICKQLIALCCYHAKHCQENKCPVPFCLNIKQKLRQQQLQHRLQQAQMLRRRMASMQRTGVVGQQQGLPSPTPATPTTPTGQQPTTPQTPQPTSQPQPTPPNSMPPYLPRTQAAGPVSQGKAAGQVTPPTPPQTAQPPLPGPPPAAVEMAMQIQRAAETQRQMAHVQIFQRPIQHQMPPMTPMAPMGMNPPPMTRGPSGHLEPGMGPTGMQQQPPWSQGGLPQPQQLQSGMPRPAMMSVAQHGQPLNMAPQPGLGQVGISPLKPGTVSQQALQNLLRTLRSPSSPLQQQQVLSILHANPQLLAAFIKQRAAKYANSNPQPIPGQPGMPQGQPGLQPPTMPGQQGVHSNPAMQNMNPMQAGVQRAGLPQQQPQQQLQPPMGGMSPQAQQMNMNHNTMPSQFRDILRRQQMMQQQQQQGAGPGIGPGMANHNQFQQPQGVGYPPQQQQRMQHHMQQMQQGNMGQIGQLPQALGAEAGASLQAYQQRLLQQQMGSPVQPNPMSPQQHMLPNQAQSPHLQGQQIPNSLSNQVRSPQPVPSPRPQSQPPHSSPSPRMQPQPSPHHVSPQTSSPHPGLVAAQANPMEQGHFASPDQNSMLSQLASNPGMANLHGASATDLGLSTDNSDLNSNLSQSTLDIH
Sequence of Tip60 (Q92993 whole entry): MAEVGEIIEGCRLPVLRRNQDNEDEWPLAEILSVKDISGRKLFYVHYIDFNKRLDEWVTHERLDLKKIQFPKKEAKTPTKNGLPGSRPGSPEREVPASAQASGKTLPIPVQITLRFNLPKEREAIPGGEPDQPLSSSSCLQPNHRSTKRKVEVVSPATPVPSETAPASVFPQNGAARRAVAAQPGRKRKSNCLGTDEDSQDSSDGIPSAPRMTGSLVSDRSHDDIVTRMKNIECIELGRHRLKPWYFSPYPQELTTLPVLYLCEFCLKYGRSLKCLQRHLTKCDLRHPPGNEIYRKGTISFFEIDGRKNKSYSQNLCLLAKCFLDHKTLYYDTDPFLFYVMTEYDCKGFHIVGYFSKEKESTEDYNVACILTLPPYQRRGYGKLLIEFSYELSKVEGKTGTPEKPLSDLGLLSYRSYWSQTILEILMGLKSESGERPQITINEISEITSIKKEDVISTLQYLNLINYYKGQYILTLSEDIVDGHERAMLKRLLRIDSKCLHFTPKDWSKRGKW

SMILES | inhibition at 50 µM [1] [%] | IC50 [2] [µM] | IC50 [3] [µM] | radioisotope [14C]Ac-CoA HAT assay, 50 μM probe [4]
O=C1C=CC(=O)N1c1ccc2ccc3cccc4ccc1c2c34 [P28] | > 90 | – | – | –
CC(=O)N[C@@H](CCCCNC(=O)CSCCNC(=O)CCNC(=O)[C@H](O)C(C)(C)COP(=O)(O)OP(=O)(O)OC[C@H]1O[C@@H](n2cnc3c(N)ncnc32)[C@H](O)[C@@H]1OP(=O)(O)O)C(N)=O [Lys-CoA] | – | 26 | 96 | –
CCN(CC)c1ccc2c(C)c(-c3ccc(N4C(=O)C=CC4=O)cc3)c(=O)oc2c1 [CPM] | > 90 | – | – | Several compounds (e.g. CPM and P28) also considerably inhibited the activity of PCAF.
